Experimental data published in patent US20230293521A1, “METHODS FOR SCREENING NOVEL CORONAVIRUS ANTIVIRALS AND METHODS OF USING ANTIVIRALS FOR THE TREATMENT OF CORONAVIRUS INFECTIONS” (priority 2020, published 2023).
Where two headings read alike, the source gives them in different places.

Key:
SARS-CoV-2 [1] = assay: microbe, parasite or virus in culture; type: cell-based; settings: for IC50: Calu-3, pre-treated 1 hour, MOI 0.01, supernatants at 48 hpi
[2] = test system: SARS-CoV-2 replication centers; assay: Confocal immunofluorescence of SARS-CoV-2 N and dsRNA replication centers in Calu-3 cells; type: cell-based; settings: for distribution of SARS-CoV-2 N and dsRNA (replication center formation): Calu-3, pre-treated, MOI 3, fixed at 24 h.p.i.; for IC90: read-out: approximate IC90 (concentration used for pre-treatment)
[3] = test system: SARS-CoV-2 genomic RNA, subgenomic N RNA and NSP14 RNA; type: cell-based; settings: for viral RNA levels: Calu-3, both MOI 0.01 and 1; for reduction in RNA synthesis compared with reduction in viral titers: Calu-3, 24 hpi
SARS-CoV-2 [4] = assay: microbe, parasite or virus in culture; type: cell-based
Vero E6 cells = settings: for cytotoxicity (rapid decrease in resistance between 1 and 20 hpi): at 50 µM and 16.67 µM
SARS-CoV-2 [5] = assay: Time of addition studies, impedance assay in VeroE6 cells; type: cell-based; settings: for inhibition of SARS-CoV-2 replication, single treatment 1 hour prior to infection, compound removed prior to infection: VPS34 inhibitors at 5 µM; for inhibition of SARS-CoV-2 replication, compound added up to 4 hpi: dosing at 2 hpi or 4 hpi, compound maintained
VPS34 = type: cell-based; settings: Huh7, 24 hours treatment; VPS34-IN1 2 µM, PIK-III, SAR405, Compound 19 5 µM, Orlistat 200 µM
[6] = Severe acute respiratory syndrome coronavirus 2, Calu-3

In the case of CCCCCCCCCCCCCCC(Br)C(=O)O (stereo not drawn) [2-bromopalmitate], the “concentrations at which infectious virus production was inhibited” value (SARS-CoV-2 [1]; Calu-3, MOI 0.01, 48 hpi) is reported as “greater than 10 µM”, the IC50 (SARS-CoV-2 [1]) is reported as 23 µM and the “distribution of SARS-CoV-2 N and dsRNA (replication center formation)” value (shortened to “distribution of SARS-CoV-2 N and dsRNA”) [2] is reported as “fewer but larger foci positive for both markers”. For the same compound, the “viral RNA levels” value [3] was “reduced RNA levels”.

O=C(Nc1ccccc1)Nc1ccc(-c2ccc(C(=O)[C@@H]3CCC[C@H]3C(=O)O)cc2)cc1 [A922500] was tested, and the IC50 (SARS-CoV-2 [1]) was 4.02 µM, the “distribution of SARS-CoV-2 N and dsRNA” value [2] was “loss of these distinct puncta and dispersion of dsRNA and SARS-CoV-2 N” and the “reduction in RNA synthesis compared with reduction in viral titers” value [3] was “significantly less substantial than the reduction in viral titers”.

For Cc1nc(NC(=O)N2CCC[C@H]2C(N)=O)sc1-c1ccnc(C(C)(C)C(F)(F)F)c1 [BYL719], the “decrease in viral titers” value (SARS-CoV-2 [4]) was 1 log and the “inhibition of SARS-CoV-2 replication” value (SARS-CoV-2 [4]) was “little inhibition was detected”.

For C=C1C(=O)O[C@H](CCCCCCCC)[C@H]1C(=O)O [C75, tetrahydro-4-methylene-2R-octyl-5-oxo-3S-furancarboxylic acid], the IC50 (SARS-CoV-2 [1]) was 22.8 µM.

With CCOC(=O)[C@@]1(CCCCCCOc2ccc(Cl)cc2)CO1 [Etomoxir] the “inhibition of SARS-CoV-2” value (SARS-CoV-2 [1]; Calu-3, MOI 0.01, 48 hpi) was “Neither compound showed any inhibition”.

CCCCCCCCCCC[C@@H](C[C@@H]1OC(=O)[C@H]1CCCCCC)OC(=O)[C@H](CC(C)C)NC=O [Orlistat] was tested, and the IC50 (SARS-CoV-2 [4]; [6]) was 21.2 µM, the “early cytotoxic effects (1-20 hours post-treatment)” value (Vero E6 cells) was “neither Orlistat nor Triacsin C induced early cytotoxic effects” and the “inhibition of SARS-CoV-2 replication, single treatment 1 hour prior to infection, compound removed prior to infection” value (from here on “inhibition … to infection”) (SARS-CoV-2 [5]) was “minimal efficacy”. The “inhibition of SARS-CoV-2 replication, compound added up to 4 hpi” value (“inhibition … to 4 hpi” for short) (SARS-CoV-2 [5]) was “remained inhibitory”, the “distribution of SARS-CoV-2 N and dsRNA” value [2] was “loss of these distinct puncta and dispersion of dsRNA and SARS-CoV-2 N” and the IC90 [2, 6] was roughly 500 µM. The “effect on GFP-2xFYVE localization to endosomes” value (VPS34) was “did not affect GFP-2xFYVE localization” and the “viral RNA levels” value [3] was “reduced RNA levels”.

For Nc1ncc(-c2ccnc(Nc3ccncc3)n2)c(CC2CC2)n1 [PIK-III], the IC50 (SARS-CoV-2 [4]; [6]) was 0.12 µM, the “toxicity at the remaining concentrations” value (Vero E6 cells) was “no toxicity was observed” and the “cytotoxicity (rapid decrease in resistance between 1 and 20 hpi)” value (Vero E6 cells; Vero E6) was “induced rapid cytotoxicity”. For the same compound, the “inhibition … to infection” value (SARS-CoV-2 [5]) was “inhibited SARS-CoV-2 replication”, the “inhibition … to 4 hpi” value (SARS-CoV-2 [5]) was “inhibition could be observed” and the IC90 [2, 6] was roughly 5 µM.

Work on C[C@@H]1COCCN1c1cc(=O)n2c(n1)N(Cc1cncc(Cl)c1)[C@H](C(F)(F)F)CC2 [SAR405] yielded an IC50 (SARS-CoV-2 [4]; [6]) of 0.376 µM.

CCCCCCCCCCCCCCOc1ccc(C(=O)O)o1 [TOFA, 5-(Tetradecyloxy)-2-furoic acid] was tested, and the IC50 (SARS-CoV-2 [1]; Severe acute respiratory syndrome coronavirus 2) was 1.34 µM, the “distribution of SARS-CoV-2 N and dsRNA” value [2] was “loss of these distinct puncta and dispersion of dsRNA and SARS-CoV-2 N” and the “reduction in RNA synthesis compared with reduction in viral titers” value [3] was “significantly less substantial than the reduction in viral titers”.

CCC/C=C/C/C=C/C=C/C=N/NN=O [Triacsin C] was tested, and the IC50 (SARS-CoV-2 [4]) was 0.04 µM, the “early cytotoxic effects (1-20 hours post-treatment)” value (Vero E6 cells; even at the highest concentrations of 50 µM and 500 µM, respectively, Vero E6) was “neither Orlistat nor Triacsin C induced early cytotoxic effects” and the “inhibition … to infection” value (SARS-CoV-2 [5]) was “minimal efficacy”. For the same compound, the “inhibition … to 4 hpi” value (SARS-CoV-2 [5]) was “remained inhibitory”, the “distribution of SARS-CoV-2 N and dsRNA” value [2] was “fewer but larger foci positive for both markers” and the IC90 ([2]; Calu-3) was roughly 50 µM. For the same compound, the “viral RNA levels” value [3] was “reduced RNA levels”.

For COc1ccc(CN2CCNCC2)c(OC)c1OC [Trimetazidine], the “inhibition of SARS-CoV-2” value (SARS-CoV-2 [1]; Calu-3, MOI 0.01, 48 hpi) was “Neither compound showed any inhibition”.

For CC(C)(O)CNc1ncc(-c2ccnc(Nc3ccncc3)n2)c(CC2CC2)n1 [VPS34-IN1], the IC50 (SARS-CoV-2 [4]; [6]) was 0.55 µM, the “toxicity at the remaining concentrations” value (Vero E6 cells) was “no toxicity was observed” and the “cytotoxicity (rapid decrease in resistance between 1 and 20 hpi)” value (Vero E6 cells; Vero E6) was “induced rapid cytotoxicity”. For the same compound, the “inhibition … to infection” value (SARS-CoV-2 [5]) was “inhibited SARS-CoV-2 replication”, the “inhibition … to 4 hpi” value (SARS-CoV-2 [5]) was “inhibition could be observed” and the “distribution of SARS-CoV-2 N and dsRNA” value [2] was “loss of these distinct puncta and dispersion of dsRNA and SARS-CoV-2 N”. The IC90 [2, 6] was roughly 5 µM and the “viral RNA levels” value [3] was “reduced RNA levels”.
